US9375004B2 (Bayer Intellectual Property GmbH, priority 2010, dated 2016)
Several values for one entry are separate records, joined by “and”; a condition that tells them apart may be missing. Equal values may be shown once. Read-outs that look alike come from different tables or passages of the source.

Legend:
Puccinia triticina = test: Puccinia triticina-test (wheat)/preventive; format: in vivo; conditions: 500 ppm, preventive, evaluated 8 days after inoculation
Pyrenophora teres = test: Pyrenophora teres-test (barley)/preventive; format: in vivo; conditions: 500 ppm, preventive, evaluated 8 days after inoculation
Septoria tritici = test: Septoria tritici-test (wheat)/preventive; format: in vivo; conditions: 500 ppm, preventive, evaluated 21 days after inoculation
Pyricularia oryzae = format: in vivo
Rhizoctonia solani = test: Rhizoctonia test (rice)/protective; format: in vivo; conditions: 250 ppm, protective, evaluated 4 days after inoculation
Method: Rhizoctonia Test (Rice)/Protective
Solvent: 28.5 parts by weight of acetone
Emulsifier: 1.5 part by weight of alkylaryl polyglycol ether
1 day after the treatment, the plants are inoculated with hyphae of Rhizoctonia solani.
Evaluation is carried out 4 days after the inoculation.

Cochliobolus miyabeanus = test: Cochliobolus test (rice)/protective; format: in vivo; conditions: 250 ppm, protective, evaluated 4 days after inoculation
Phakopsora pachyrhizi = test: Phakopsora test (soybeans)/protective; format: in vivo; conditions: 250 ppm, protective, evaluated 11 days after inoculation
Uromyces appendiculatus = conditions: 100 ppm, beans, preventive, evaluated 10 days after inoculation
Botrytis cinerea = test: Botrytis test (beans)/preventive; conditions: 100 ppm, preventive, lesion size 2 days after inoculation
Method: Botrytis Test (Beans)/Preventive
(§1) Solvent: 24.5 parts by weight of acetone • 24.5 parts by weight of N,N-dimethylformamide
(§2) Emulsifier: 1 part by weight of alkylaryl polyglycol ether
After the spray coating has dried on, 2 small pieces of agar covered with growth of Botrytis cinerea are placed on each leaf. The inoculated plants are placed in a darkened chamber at 20° C. and a relative atmospheric humidity of 100%.
2 days after the inoculation, the size of the lesions on the leaves is evaluated.

Venturia inaequalis = test: Venturia test (apples)/preventive; conditions: 100 ppm, preventive, evaluated 10 days after inoculation
Method: Venturia Test (Apples)/Preventive
as §1, §2
After the spray coating has dried on, the plants are inoculated with an aqueous conidia suspension of the causal agent of apple scab (Venturia inaequalis) and then remain for 1 day in an incubation cabinet at approximately 20° C. and a relative atmospheric humidity of 100%.
The plants are then placed in a greenhouse at approximately 21° C. and a relative atmospheric humidity of approximately 90%.
The test is evaluated 10 days after the inoculation.

[1] = test system: Fusarium nivale (var. majus); test: Fusarium nivale (var. majus)-test (wheat)/preventive; conditions: preventive, evaluated 5 days after inoculation
[2] = logP by HPLC on reversed-phase column (EEC Directive 79/831 Annex V.A8); conditions: HPLC on reversed-phase column (C 18), EEC Directive 79/831 Annex V.A8
Alternaria solani = test: Alternaria test (tomato)/preventive; format: in vivo; conditions: 500 ppm, preventive, evaluated 7 days after inoculation
Sphaerotheca fuliginea = test: Sphaerotheca test (cucumber)/preventive; format: in vivo; conditions: 500 ppm, preventive, evaluated 7 days after inoculation

| SMILES | Efficacy (Puccinia triticina) [%] | Efficacy (Pyrenophora teres) [%] | Efficacy (Septoria tritici) [%] | Efficacy (Rhizoctonia solani) [%] | Efficacy (Cochliobolus miyabeanus) [%] | Efficacy (Phakopsora pachyrhizi) [%] | Efficacy (Uromyces appendiculatus) [%] | Efficacy (Botrytis cinerea) [%] | Efficacy (Venturia inaequalis) [%] | Efficacy ([1]; 500 ppm) [%] | Efficacy (Pyricularia oryzae; in vivo) | logP [2] | Efficacy (Alternaria solani) [%] | Efficacy (Sphaerotheca fuliginea) [%] | other results |
| --- | --- | --- | --- | --- | --- | --- | --- | --- | --- | --- | --- | --- | --- | --- | --- |
| Cn1nc(C(F)F)c(C(=O)Nc2ccccc2CCC(C)(C)C)c1Cl [Example 14] | 100 | 100 | 93 | 100 | 90 | 98 | 100 | 99 | 100 | 100 |  |  |  |  | Efficacy (Pyricularia oryzae; 250 ppm, rice, protective, evaluated 5 days after inoculation): 98%; chromatographic logP (physchem; logP (acidic), HPLC, 0.1% aqueous formic acid/acetonitrile): 4.01; chromatographic logP (physchem; logP, HPLC on reversed-phase column (C 18), EEC Directive 79/831 Annex V.A8): 4.1 |
| Cn1nc(C(F)F)c(C(=O)Nc2ccccc2C2CC2C2CC2)c1Cl (single isomer, unassigned) [Example 47] | 100 | 100 |  | 100 |  | 98 | 100 |  | 100 |  | 90% | 3.76 |  |  | Efficacy ([1]; 500 ppm, listed as 47 from this invention): 86% |
| Cn1nc(C(F)F)c(C(=O)Nc2ccccc2-c2ccc(Cl)c(F)c2)c1Cl [Example 99] | 100 | 100 | 86 | 100 | 95 |  | 100 | 97 | 100 | 100 |  | 3.71 |  |  |  |
| Cn1nc(C(F)F)c(C(=O)Nc2ccccc2C2CC3CCC2C3)c1F (stereo not shown) [Example 51] | 71 | 100 | 80 |  |  | 93 | 100 | 100 | 100 |  |  | 3.78 | 95 | 96 |  |
| CC(C)C1C2CCC1c1c(NC(=O)c3c(C(F)F)nn(C)c3F)cccc12 (stereo not shown) [Example 66] | 100 | 100 | 100 | 100 | 93 | 98 | 100 | 99 | 100 | 86 | 100% | 4.41 | 100 | 100 | Efficacy ([1]; 250 ppm): 93% |
| CC(CC(C)(C)C)c1ccccc1NC(=O)c1c(C(F)F)nn(C)c1F (stereo not shown) [Example 21] | 100 | 95 | 100 | 100 | 85 | 98 | 100 | 100 | 100 |  | 85% | 4.04 | 95 | 95 |  |
| Cn1nc(C(F)F)c(C(=O)Nc2ccc(F)cc2-c2ccc(Cl)c(Cl)c2)c1F [Example 116] | 100 | 100 | 100 | 97 | 90 | 85 | 100 | 100 | 100 |  | 97% and 90% | 3.89 | 100 | 98 | protection (Pyricularia oryzae; in vivo): at least 90% |
| Cn1nc(C(F)F)c(C(=O)Nc2ccc(F)cc2-c2ccc(Cl)cc2)c1Cl [Example 83] |  |  |  |  |  | 94 | 100 | 100 | 100 |  |  | 3.76 | 94 | 100 |  |
| CC(C)C1C2CCC1c1c(NC(=O)c3c(C(F)F)nn(C)c3Cl)cccc12 (stereo not shown) [Example 67] | 100 | 100 | 100 | 100 | 90 |  | 100 | 99 | 100 | 100 | 96% | 4.55 |  |  | Efficacy ([1]; 250 ppm): 71% |
| Cn1nc(C(F)F)c(C(=O)Nc2ccc(F)cc2-c2ccc(Cl)cc2)c1F [Example 84] |  |  |  |  |  | 80 | 99 | 99 | 100 |  |  | 3.46 | 94 |  |  |
| Cn1nc(C(F)F)c(C(=O)Nc2ccccc2C2CC2C2CC2)c1F (stereo not shown) [Example 46] | 100 | 100 | 89 | 97 |  | 85 | 100 | 99 | 100 |  | 96% | 3.67 | 100 | 94 |  |
| Cn1nc(C(F)F)c(C(=O)Nc2ccc(F)cc2-c2ccc(Cl)c(Cl)c2)c1Cl [Example 117] | 100 | 100 |  |  |  | 98 | 100 | 99 | 100 |  |  | 4.04 |  |  |  |
| Cn1nc(C(F)F)c(C(=O)Nc2ccccc2-c2ccc(C(F)(F)F)c(F)c2)c1Cl [Example 148] | 100 | 100 | 100 | 100 | 95 | 98 | 100 | 100 | 100 | 86 | 80% | 3.77 |  |  |  |
| CC1CC(C)(C)c2cccc(NC(=O)c3c(C(F)F)nn(C)c3F)c21 (racemic) [Example 64] | 100 | 100 | 100 |  |  | 97 | 100 | 95 | 99 | 75 |  |  | 95 | 100 |  |
| Cn1nc(C(F)F)c(C(=O)Nc2ccccc2OC(F)(F)C(F)C(F)(F)F)c1Cl (stereo not shown) [Example 31] |  |  |  | 100 | 80 |  |  |  |  |  | 98% | 3.71 | 100 | 91 |  |
| CC(C)CCc1ccccc1NC(=O)c1c(C(F)F)nn(C)c1F [Example 7] | 100 | 100 | 88 | 100 | 80 |  |  |  |  |  | 97% | 3.60 | 95 |  |  |
| Cn1nc(C(F)F)c(C(=O)Nc2ccccc2-c2ccc(Br)cc2)c1F [Example 139] | 100 | 100 | 100 | 100 | 95 |  | 100 | 100 | 100 | 93 |  | 3.56 |  |  |  |
| Cn1nc(C(F)F)c(C(=O)Nc2ccccc2C2CC2C2CC2)c1Cl (single isomer, unassigned) [Example 48] | 100 | 86 |  | 98 |  | 99 | 100 |  | 100 |  |  | 3.85 |  |  | Efficacy ([1]; 500 ppm, listed as 48 from this invention): 86% |
| Cn1nc(C(F)F)c(C(=O)Nc2ccccc2CCC(C)(C)C)c1F [Example 13] | 100 | 100 | 100 | 100 | 85 | 98 | 100 | 94 | 100 | 100 | 97% | 3.83 | 100 | 100 |  |
